The source of these data is ChEMBL document CHEMBL1124073, “Synthesis and copper-dependent antimycoplasmal activity of 1-amino-3-(2-pyridyl)isoquinoline derivatives. 1. Amides” (1988).

Values after ≈ are worked out from the molar mass of the structure shown. Bounds are passed on as bounds.

Test [1] concerns Mycoplasmoides gallisepticum. Description: Antimycoplasmal activity against Mycoplasma gallisepticum K514 without the extra addition of copper. In kind it is functional.
The subject of test [2] is Mycoplasmoides gallisepticum. Description: Antimycoplasmal activity against Mycoplasma gallisepticum K514 with the extra addition of copper (40 uM). In kind it is functional.

For orientation: MIC means the least concentration at which growth counts as inhibited. Take `Cc1ccc(C)c(C(=O)Nc2nc(-c3ccccn3)cc3ccccc23)c1`: the minimum inhibitory concentration (MIC) in test [1] was above 100 µM; in test [2], 0.39 µM (≈ 0.138 µg/mL).

Turning to `Cc1cc(C)cc(C(=O)Nc2nc(-c3ccccn3)cc3ccccc23)c1`, the results for the MIC in test [1] and in test [2] were above 100 µM and 0.39 µM (≈ 0.138 µg/mL), respectively.

`CC(=O)Nc1nc(-c2ccccn2)cc2ccccc12`: the MIC was above 25 µM in test [1] and 1.9 µM (≈ 0.5 µg/mL) in test [2].

As for `CC(C)C(=O)Nc1nc(-c2ccccn2)cc2ccccc12`, the values for the MIC in test [1] and in test [2] were above 25 µM and 0.22 µM (≈ 0.0641 µg/mL), respectively.

As to `Cc1ccc(C(=O)Nc2nc(-c3ccccn3)cc3ccccc23)c(C)c1`, the minimal inhibitory concentration (MIC) in test [1] was above 100 µM; in test [2] it was 0.39 µM (≈ 0.138 µg/mL).

As to `O=C(Nc1nc(-c2ccccn2)cc2ccccc12)c1ccc(Cl)c(Cl)c1`, the minimum inhibitory concentration (MIC) in test [1] was above 160 µM; in test [2], 0.64 µM (≈ 0.252 µg/mL).

With `O=C(Nc1nc(-c2ccccn2)cc2ccccc12)c1cccc(Cl)c1`, the MIC is above 23 µM in test [1] and 0.35 µM (≈ 0.126 µg/mL) in test [2].

For `Cc1ccc(C(=O)Nc2nc(-c3ccccn3)cc3ccccc23)cc1C`, the minimal inhibitory concentration (MIC) in test [1] is above 100 µM; in test [2], 0.39 µM (≈ 0.138 µg/mL).

Take `COc1ccc(C(=O)Nc2nc(-c3ccccn3)cc3ccccc23)cc1`: the values for the minimal inhibitory concentration (MIC) in test [1] and in test [2] were above 160 µM and 0.18 µM (≈ 0.064 µg/mL), respectively.

As for `O=C(Nc1nc(-c2ccccn2)cc2ccccc12)c1ccccc1`, the minimum inhibitory concentration (MIC) in test [1] is 12.3 µM (≈ 4.01 µg/mL); in test [2] it was 0.1 µM (≈ 0.0325 µg/mL).

Take `Cc1ccc(C(=O)Nc2nc(-c3ccccn3)cc3ccccc23)cc1`: the MIC in test [1] was above 160 µM; in test [2], 0.19 µM (≈ 0.0645 µg/mL).

In the case of `CC(C)(C)C(=O)Nc1nc(-c2ccccn2)cc2ccccc12`, the MIC is above 25 µM in test [1] and 0.21 µM (≈ 0.0641 µg/mL) in test [2].

As for `CCC(=O)Nc1nc(-c2ccccn2)cc2ccccc12`, the results for the minimal inhibitory concentration (MIC) in test [1] and in test [2] were above 25 µM and 0.45 µM (≈ 0.125 µg/mL), respectively.

`CC[C@H]1OC(=O)C[C@@H](O)[C@H](C)[C@@H](O[C@@H]2O[C@H](C)[C@@H](O[C@H]3C[C@@](C)(O)[C@@H](O)[C@H](C)O3)[C@H](N(C)C)[C@H]2O)[C@@H](CC=O)C[C@@H](C)C(=O)/C=C/C(C)=C/[C@@H]1CO[C@@H]1O[C@H](C)[C@@H](O)[C@@H](OC)[C@H]1OC` [TYLOSIN]: the minimal inhibitory concentration (MIC) in test [1] and in test [2] was 0.1 µM (≈ 0.0916 µg/mL) in each case.

`O=C(Nc1nc(-c2ccccn2)cc2ccccc12)c1ccc(Cl)cc1`: the minimal inhibitory concentration (MIC) is above 160 µM in test [1] and 0.35 µM (≈ 0.126 µg/mL) in test [2].

Compound CUPRIC SULFATE gave a minimal inhibitory concentration (MIC) in test [1] of 400 µM.

Regarding `CCCCC(CC)C(=O)Nc1nc(-c2ccccn2)cc2ccccc12` (stereo not drawn), the minimal inhibitory concentration (MIC) is above 170 µM in test [1] and 0.36 µM (≈ 0.125 µg/mL) in test [2].

For the compound `Nc1nc(-c2ccccn2)cc2ccccc12`, the minimum inhibitory concentration (MIC) is 452 µM (≈ 100 µg/mL) in test [1] and 0.45 µM (≈ 0.0996 µg/mL) in test [2].

As to `CCCCCCCCCC(=O)Nc1nc(-c2ccccn2)cc2ccccc12`, the MIC is above 170 µM in test [1] and 0.34 µM (≈ 0.128 µg/mL) in test [2].

With `Cc1cccc(C(=O)Nc2nc(-c3ccccn3)cc3ccccc23)c1`, the MIC in test [1] is above 23 µM; in test [2], 0.09 µM (≈ 0.0305 µg/mL).

As to `COc1cccc(C(=O)Nc2nc(-c3ccccn3)cc3ccccc23)c1`, the MIC in test [1] is above 23 µM; in test [2], 0.18 µM (≈ 0.064 µg/mL).

With `Cc1cccc(C)c1C(=O)Nc1nc(-c2ccccn2)cc2ccccc12`, the MIC is above 25 µM in test [1] and 0.78 µM (≈ 0.276 µg/mL) in test [2].
